Legend:
[1] = molecular target: T1, DGAT1 (human small intestinal microsomal preparation) (Homo sapiens, UniProt O75907); test: Cell-free DGAT1 enzyme assay (LC-MS readout); format: biochemical
T1 construct: using a human small intestinal microsomal preparation (BD Biosciences) as the enzyme source; tissue BD Biosciences; host or cells: human small intestine microsomes
T1 sequence (O75907 1-488): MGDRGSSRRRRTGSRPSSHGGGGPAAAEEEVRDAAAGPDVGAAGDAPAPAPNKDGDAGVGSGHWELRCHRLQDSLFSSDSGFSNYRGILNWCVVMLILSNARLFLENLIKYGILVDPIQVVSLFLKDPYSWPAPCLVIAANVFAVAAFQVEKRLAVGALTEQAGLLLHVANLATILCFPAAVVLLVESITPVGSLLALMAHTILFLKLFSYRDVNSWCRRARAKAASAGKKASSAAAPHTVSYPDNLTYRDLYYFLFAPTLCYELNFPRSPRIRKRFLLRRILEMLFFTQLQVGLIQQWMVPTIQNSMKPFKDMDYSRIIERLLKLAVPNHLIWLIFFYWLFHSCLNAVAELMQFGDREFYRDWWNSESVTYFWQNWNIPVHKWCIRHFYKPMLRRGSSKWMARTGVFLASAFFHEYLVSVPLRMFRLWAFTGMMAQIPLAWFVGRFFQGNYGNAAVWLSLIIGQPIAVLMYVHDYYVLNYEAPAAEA
Description: A cell-free DGAT1 assay was established using a human small intestinal microsomal preparation (BD Biosciences) as the enzyme source, and dioleoyl glycerol and palmitoleoyl Coenzyme A (CoA) as substrates (Sigma). Dioleoyl glycerol was dissolved in DMSO and diluted to 600 μM with 175 mM Tris–HCl and 100 mM MgCl2 (Tris/MgCl2) buffer. Palmitoleoyl CoA was dissolved in1.5 % acetone water solution (Fisher Scientific) to 150 μM. Microsomes were diluted to 25 μg/mL with 3.5 mg/mL BSA in Tris MgCl2 buffer. To a 1.5 mL tube, 67 μL of each palmitoleoyl CoA s and dioleoyl glycerol solutions (1:1 ratio) were added and the reaction was initiated by the addition of 67 μL of microsomes. The reaction was incubated in a 37 °C water bath for 60 min. The reaction was stopped by the addition of 1 mL of extraction solvent (isopropanol:dichloromethane (1:1 v/v) with 2.4 % formic acid) containing 1 μg/mL internal standard (glyceryl triolein, Sigma) to each tube and mixed by vortexing. The tubes were centrifuged at 10,000Xg for 3 min. 500 μL of the bottom phase was filtered through a Millex-HV syringe driven filter unit with tube outlet (PVDF @ 0.45 μm, Millipore) and transferred to LC-MS vials (12x32 mm glass screw neck, preslit cap & PTFE/silicone septa, Waters). Phytochemicals (Sigma), botanical extracts and positive control were diluted in DMSO and added to the reaction with the substrates at the desired concentration. The DGAT1 inhibitor A922500 (Tocris) was used as positive control at a concentration of 40 nM.
Refer to Table 3 for the mobile phase program. Solvent A: 0.1 % ammonium acetate in water; Solvent B: 0.1 % acetic acid in acetonitrile; Solvent C: 0.1 % acetic acid in isopropanol; all solvents were from Fisher Scientific. Injection volume: 10 μL. Column: Acquity BEH C18 1.7 μm, 2.1 x 50 mm. Effluent from the column was directed to the electrospray source of the mass spectrometer. Electrospray conditions: positive ion mode; cone voltage: […]; desolvation temperature: 450 °C; source temperature: 140 °C; nebulizer gas flow: 800 L/h; cone gas flow: 10 L/h. The mass spectrometer was operated at 20,000 resolving power and scans from m/z 100–1200 were acquired with a cycle time of 0.25 s. Selected ion chromatograms were plotted for the following: m/z 875 representing the ammoniated molecular ion for triacylglycerol reaction product containing 2 oleic acid and 1 palmitoleic acid moieties (C18:1/C18:1/C16:1); m/z 903 for the ammoniated molecular ion of glyceryl triolein (C18:1/C18:1/C18:1) internal standard. Quantification was determined based on area counts of the product relative to the internal standard.
Dose response curves for the cell-free DGAT1 assay were fitted with a log (inhibitor) vs. response, variable slope (four parameters) equation. Cellular DGAT1 assay data is shown as mean ± standard error of mean (SEM) and was analyzed by two-way ANOVA with Bonferroni's multiple comparison test. The primary outcome variable, serum TG level, is presented as mean ± SEM of baseline (fasting) subtracted change in serum TG after the HFM challenge. Area under the curve (AUC) was determined using the trapezoidal method. Comparisons between groups were made using unpaired t-test with Welch’s correction. A significant effect of investigational product was defined as P < 0.05. All statistical analyses were done using Prism-Graph Pad Software (San Diego, CA).

[2] = system: DGAT1 activity / TG synthesis in HEK293H cells; test: Cellular DGAT1 assay: [14C]-glycerol incorporation into TG; format: cell-based, human
Excerpt: Three different cell lines, human colorectal (HT-29), human embryonic kidney (HEK293H) and human hepatic (HEPG2) were screened for the presence of both DGAT1 and DGAT2 protein. The HEK293H cell line contained DGAT1 and little to no DGAT2 protein (Additional file 1: Figure S1), therefore, a cellular DGAT1 assay was established in HEK293H cells to measure the synthesis of TG. HEK293 cell line has previously been reported to contain only DGAT1 and not DGAT2, and has been validated as an in vitro model to determine TG synthesis via DGAT1 [34].
The DGAT1 activity was determined by measuring the incorporation of [^14C]-glycerol (1 μCi/mL, Perkin-Elmer) into [^14C]-TG during a 5 h incubation with 0.3 mM oleic acid/BSA in HEK293H cells. […] Silica gel spots corresponding to lipid species were scraped into scintillation vials and the incorporated radioactivity was quantified using a MicroBeta TriLux (Perkin-Elmer). […]
Dose response curves for the cell-free DGAT1 assay were fitted with a log (inhibitor) vs. response, variable slope (four parameters) equation. Cellular DGAT1 assay data is shown as mean ± standard error of mean (SEM) and was analyzed by two-way ANOVA with Bonferroni's multiple comparison test. […] Area under the curve (AUC) was determined using the trapezoidal method. […]

[3] = single phytochemicals, mean of duplicates

Molecule	IC50 [1, 3]	also measured
O=C(Nc1ccccc1)Nc1ccc(-c2ccc(C(=O)[C@@H]3CCC[C@H]3C(=O)O)cc2)cc1 [A-922500]		IC50 ([1]; synthetic inhibitor): 40 nM; IC50 ([1]; synthetic inhibitor, listed as A922500): 39.9 nM; oleic acid induced DGAT1 enzyme activity as measured by 14C label TG levels [2]: inhibited
Oc1cc(O)c2cc(O)c(-c3ccc(O)c(O)c3)[o+]c2c1 [Cyanidin Chloride]	3060 nM	
O=C(O[C@@H]1Cc2c(O)cc(O)cc2O[C@@H]1c1cc(O)c(O)c(O)c1)c1cc(O)c(O)c(O)c1 [EGCG, Epigallocatechin Gallate]	667 nM	
O=c1oc2c(O)c(O)cc3c(=O)oc4c(O)c(O)cc1c4c23 [Ellagic Acid]	3450 nM	
O=C(O)c1cc(O)c(O)c(O)c1 [Gallic Acid]	2670 nM	
Punicalagins	259 nM	

From publication PMC4526202, “Identification of a botanical inhibitor of intestinal diacylglyceride acyltransferase 1 activity via in vitro screening and a parallel, randomized, blinded, placebo-controlled clinical trial” (Nutrition & Metabolism, 2015)
